# Laboratory results taken from patent US11419862B2, “Quinoline derivative for treatment of nasopharyngeal carcinoma” (CHIA TAI TIANQING PHARMACEUTICAL GROUP CO., LTD., priority 2018, dated 2022).
# Where a name gives a salt, the structure may show the parent alone.
# Test system: nasopharyngeal carcinoma
# Assay: Efficacy on nasopharyngeal carcinoma: patient case reports treated orally with capsules of the compound of Example 1
# Type: in vivo, human
# Design: key to evaluation according to RECIST 1.1: CR: complete remission, which means that target lesions of tumors have disappeared and no new lesions appear which is maintained for at least 4 weeks; PR: partial remission, which means 30% or more decrease in the sum of the diameters of target lesions of tumors than the baseline level, which is maintained for at least 4 weeks; PD: the progression of disease, which means 20% or more increase in the diameters of target lesions of tumors than the baseline level; SD: stable disease, which means the sum of diameters of all target leisions neither shrink to qualify for PR nor sufficient increase to qulify for PD
# Method: During or after radiotherapy, the patients are treated with the capsules of the compound of Example 1 at 12 mg qd. The administration is continuously performed for 2 weeks and rest for 1 week, followed by continuously administrating for 2 weeks and resting for 1 week as a cycle. The target lesions are regularly evaluated, and the treatment regimen is terminated according to the evaluation results.
# Subsequently, the patient took orally the capsules of 12 mg of the compound of Example 1 once per day for treatment (continuously administrating for 2 weeks and resting for 1 week as a treatment cycle). […] After 4 cycles of treatment, evaluated as PR according to RECIST 1.1, and the sum of the target lesions was 10 mm, which was reduced by 9 mm from the baseline. After 8 cycles of treatment, the sum of the target lesions was 9 mm, which was reduced by 10 mm from the baseline.
# From Mar. 2, 2017, the patient started to take orally the capsules of 12 mg of the compound of Example 1 once per day for treatment (continuously administrating for 2 weeks and resting for 1 week as a treatment cycle). On Apr. […] The treatment with the capsules of the compound of Example 1 was continued.
# Three months later, the patient started to take orally the capsules of 12 mg of the compound of Example 1 once per day for treatment (continuously administrating for 2 weeks and resting for 1 week as a treatment cycle). […] The treatment with the capsules of the compound of Example 1 was continued.
# [1] = Example 4, patient, 12 mg once per day orally, after 2 cycles
# [2] = Example 4, patient, 12 mg once per day orally, after 4 cycles
# [3] = Example 4, patient, 12 mg once per day orally, after 8 cycles
# [4] = Example 5, patient, 12 mg once per day orally, after 2 cycles
# [5] = Example 5, patient, 12 mg once per day orally, after 4 cycles
# [6] = Example 5, patient, 12 mg once per day orally, after 6 cycles
# [7] = Example 5, patient, 12 mg once per day orally, after 12 cycles
# [8] = Example 5, patient, 12 mg once per day orally, after 16 cycles
# [9] = Example 6, patient, 12 mg once per day orally, after 2 cycles
# [10] = Example 6, patient, 12 mg once per day orally, after 4 cycles
compound,measurement,setting,value
"COc1cc2c(Oc3ccc4[nH]c(C)cc4c3F)ccnc2cc1OCC1(N)CC1 [Example 1, 1-[[[4-fluoro-2-methyl-1H-indol-5-yl)oxy-6-methoxyquinolin-7-yl]oxy]methyl]cyclopropylamine dihydrochloride]",evaluation according to RECIST 1.1,"Example 4, patient, 12 mg once per day orally, 2 weeks on/1 week off, after 2 cycles","PR (partial remission, which means 30% or more decrease in the sum of the diameters of target lesions of tumors than the baseline level, which is maintained for at least 4 weeks)"
same,reduction of sum of the target lesions from the baseline,[1],7 mm
same,sum of the target lesions,[1],12 mm
same,evaluation according to RECIST 1.1,[2],"PR (partial remission, which means 30% or more decrease in the sum of the diameters of target lesions of tumors than the baseline level, which is maintained for at least 4 weeks)"
same,reduction of sum of the target lesions from the baseline,[2],9 mm
same,sum of the target lesions,[2],10 mm
same,reduction of sum of the target lesions from the baseline,[3],10 mm
same,sum of the target lesions,[3],9 mm
same,adverse reaction during the administration,"Example 4, patient, 12 mg once per day orally, relieved after medication and dosage reduction",Grade 3 hypertension
same,evaluation according to RECIST 1.1,"Example 5, patient, 12 mg once per day orally, 2 weeks on/1 week off, after 2 cycles","PR (partial remission, which means 30% or more decrease in the sum of the diameters of target lesions of tumors than the baseline level, which is maintained for at least 4 weeks)"
same,reduction of sum of the target lesions from the baseline,[4],17 mm
same,sum of the target lesions,[4],30 mm
same,evaluation according to RECIST 1.1,[5],"PR (partial remission, which means 30% or more decrease in the sum of the diameters of target lesions of tumors than the baseline level, which is maintained for at least 4 weeks)"
same,reduction of sum of the target lesions from the baseline,[5],19 mm
same,sum of the target lesions,[5],28 mm
same,evaluation according to RECIST 1.1,[6],"PR (partial remission, which means 30% or more decrease in the sum of the diameters of target lesions of tumors than the baseline level, which is maintained for at least 4 weeks)"
same,reduction of sum of the target lesions from the baseline,[6],23 mm
same,sum of the target lesions,[6],24 mm
same,evaluation according to RECIST 1.1,[7],"PR (partial remission, which means 30% or more decrease in the sum of the diameters of target lesions of tumors than the baseline level, which is maintained for at least 4 weeks)"
same,reduction of sum of the target lesions from the baseline,[7],23 mm
same,sum of the target lesions,[7],24 mm
same,evaluation according to RECIST 1.1,[8],"PR (partial remission, which means 30% or more decrease in the sum of the diameters of target lesions of tumors than the baseline level, which is maintained for at least 4 weeks)"
same,reduction of sum of the target lesions from the baseline,[8],24 mm
same,sum of the target lesions,[8],23 mm
same,evaluation according to RECIST 1.1,"Example 6, patient, 12 mg once per day orally, 2 weeks on/1 week off, after 2 cycles",SD
same,reduction of sum of the target lesions from the baseline,[9],18 mm
same,sum of the target lesions,[9],47 mm
same,evaluation according to RECIST 1.1,[10],"PR (partial remission, which means 30% or more decrease in the sum of the diameters of target lesions of tumors than the baseline level, which is maintained for at least 4 weeks)"
same,reduction of sum of the target lesions from the baseline,[10],23 mm
same,sum of the target lesions,[10],42 mm
same,adverse reaction during the administration,"Example 6, patient, alleviated by antihypertensive drugs and dose reduction to 10 mg and 8 mg",Grades 2 and 3 hypertension
